Results published in publication PMC11784013, “Potassium molybdate blocks APN-dependent coronavirus entry by degrading receptor via PIK3C3-mediated autophagy” (Journal of Virology, 2024).

Legend:
APN = assay: Pathway inhibitor screen on PM-induced APN degradation in ST cells (western blot); format: cell-based, porcine; details: PM 10 mM, 16 h, 3-MA 20 mM
Experimental: Fig 6 PM degrades APN by autophagy-lysosome pathway. (A) ST cells were treated with PM (10 mM) and infected with TGEV (0.1 MOI) in the presence and absence of MG132 (20 µM), 3-MA (20 mM), and Z-VAD-FMK (20 µM) for 16 h. The APN expression and TGEV N were detected by western blot. (B) ST cells were treated with PM (10 mM) at 2, 4, 8, and 16 h, autophagy markers P62 and LC3, and APN were measured by western blot. (C) ST cells were transfected with RFP-EGFP-LC3B for 12 h and then treated with PM (10 mM) or H2O for 36 h. The fluorescence of GFP and RFP was detected by confocal microscopy, scale bar: 5 µm. (D) Quantification of autophagosomes (Merge) and autolysosomes (RFP) from C using Image J software. (E) ST cells were treated with PM or H2O for 24 h. The autophagosomes (yellow arrow) and autolysosomes (asterisk) were detected by transmission electron microscope, scale bar: 2 µm. (F) The number of autophagosomes (yellow arrow) and autolysosomes (asterisk) was quantified. All western blot results were calculated by Image J. Results are presented as mean ± SD of data from three independent experiments. ***, P ≤ 0.001.
Fig 7 PM degrades APN expression via activating PIK3C3-mediated autophagy. (A) Graphical representation for autophagy and the targets of different autophagy inhibitors. (B) ST cells were treated with PM (10 mM) in the presence and absence of 3-MA (20 mM), SBI0206965 (20 µM), and 3BDO (30 µM) for 16 h, and the APN expression was detected by western blot. (C) ST cells were treated with PM (10 mM) in the presence and absence of 3-MA (20 mM) for 16 h, and the APN, PIK3C3, ATG14, BECN1, P62, and LC3 were measured by western blot. (D) ST cells were transfected with PIK3C3 siRNA-1, PIK3C3 siRNA-2, PIK3C3 siRNA-3, PIK3C3 siRNA-4, and NC siRNA for 24 h, the PIK3C3 expression was detected by western blot. (E) ST cells were transfected with PIK3C3 siRNA-4 or NC siRNA for 24 h and then treated with PM (10 mM) for 16 h. The APN, PIK3C3, ATG14, BECN1, P62, and LC3 were detected by western blot. (F) Sequencing diagram for WT ST cells and PIK3C3 KO ST cells. (G) PIK3C3 was detected by western blot in WT ST cells and PIK3C3 KO ST cells. (H) WT ST cells and PIK3C3 KO ST cells were treated with PM (10 mM) for 16 h and then the APN, PIK3C3, ATG14, BECN1, P62, and LC3 were detected by western blot. (I) WT ST cells and PIK3C3 KO ST cells were transfected with pCMV-Myc and pCMV-Myc-PIK3C3, respectively, for 24 h and treated with PM (10 mM) for 16 h. The APN, PIK3C3, P62, and LC3 were detected by western blot. All western blot results were calculated by Image J. All experiments were performed in triplicate.

TGEV Miller = assay: TGEV infection of ST cells (RT-qPCR, TCID50, western blot, IFA); format: cell-based, transmissible gastroenteritis virus; details: TGEV Miller 0.1 MOI, indicated concentrations, 1 h pretreatment and 17 h
Experimental: Fig 1 PM inhibits TGEV and PRCV infection in ST cells. (A) A cytotoxicity assay of PM in ST cells. ST cells cultured in a 96-well plate were incubated with different concentrations of PM for 24 h, which was tested by Cell Counting Kit 8. (B) Time course for PM inhibiting TGEV or PRCV or PEDV infection assay. (C–F) The ST cells, pretreated with PM at the indicated concentrations for 1 h were infected with TGEV Miller (0.1 MOI) or PRCV (0.1 MOI) for 1 h and were again treated with PM at 37°C for 17 h. The cell samples were collected and examined by real-time quantitative PCR (RT-qPCR), TCID50, western blot (C and D), and immunofluorescence assay (IFA) (E and F), scale bar: 50 µm. (G) Vero-E6 cells were treated with indicated PM and infected with PEDV LJX 01/2014 according to the time course of Fig. 1B, which was detected by TCID50 and western blot. Results are presented as mean ± SD of data from three independent experiments. ns, no significant; **, P ≤ 0.01; ***, P ≤ 0.001.
Fig 3 PM inhibits TGEV and PRCV infection by potassium ion and molybdate synergy. […] The cell samples were measured by RT-qPCR. (C and D) ST cells were treated with PM (K2MoO4, 10 mM), KCl (20 mM), Na2MoO4 (10 mM), sodium chloride (NaCl, 10 mM), K2MoO4 (10 mM), and NaCl (20 mM) as well as Na2MoO4 (10 mM) and KCl (20 mM) for 1 h and then infected with TGEV Miller (0.1 MOI) or PRCV (0.1 MOI) for 17 h, which was determined by RT-qPCR and TCID50. […]
Total RNA was extracted using RNAiso reagent (TaKaRa, Japan, 9109) and reverse transcribed into cDNA using HiScript Q RT SuperMix for qPCR (Vazyme, China, R223-01), both of which followed the manufacturer’s recommendations. The TGEV and PRCV virus copy numbers were detected by the TaqMan probe-based RT-qPCR method developed previously in our laboratory ([59]). Relative qPCR was also performed using ChamQ SYBR qPCR master mix (Vazyme, China, Q311-02), and the results were calculated via the 2^-ΔΔCT method.

[1] = no virus, SBI0206965 20 µM, 3BDO 30 µM

Cn1cnc(N)c2ncnc1-2 [3-MA, 3-Methyladenine]
reversal of PM-induced APN degradation (APN; [1]): reversed the changes in APN expression | reversal of PM-induced APN degradation (APN; TGEV 0.1 MOI, MG132 20 µM, Z-VAD-FMK 20 µM): reversed

O=C1OC(COc2ccccc2[N+](=O)[O-])CC1Cc1ccccc1 (stereo not drawn) [3BDO]
reversal of PM-induced APN degradation (APN; [1]): cannot abolish the degradation of APN

CNC(=O)c1ccccc1Oc1nc(Nc2cc(OC)c(OC)c(OC)c2)ncc1Br [SBI0206965]
reversal of PM-induced APN degradation (APN; [1]): cannot abolish the degradation of APN

[Cl-].[K+] [potassium chloride]
TGEV infection, single salt (TGEV Miller): neither potassium chloride nor sodium molybdate was able to suppress TGEV infection

[Na+].[Na+].[O]=[Mo](=[O])([O-])[O-] [sodium molybdate]
TGEV infection, single salt (TGEV Miller): neither potassium chloride nor sodium molybdate was able to suppress TGEV infection
